Structures are written as SMILES. A value given as a limit tells only on which side of the number the result lay.

Data on 21 molecules can be found in BindingDB's records for patent US20250388593 (Mitsubishi Tanabe Pharma, 2025).

T1 sequence (Q96SW2 318-426): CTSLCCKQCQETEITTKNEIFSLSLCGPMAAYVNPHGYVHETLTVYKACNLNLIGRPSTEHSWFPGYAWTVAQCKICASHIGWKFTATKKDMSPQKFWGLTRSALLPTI

The assay addresses T1, Protein cereblon [318-426] (UniProt Q96SW2).
T1 construct: 318-426
Briefly: Measurement of Molecular Interactions Using Surface Plasmon Resonance (SPR). How it is done:
The instrument used was the Biacore T200 (manufactured by Cytiva). […] The sensor chip used was Sensor Chip SA (manufactured by Cytiva). The CRBN truncate was immobilized using the affinity between SA (streptavidin) on the sensor chip and the Avi-tag. The running buffer was a mixture of 10 mM HEPES pH 7.5, 150 mM NaCl, 1 mM TCEP, 0.005% Tween 20, and 2% DMSO. […] Contact time and dissociation time were set at 60 seconds and 120 seconds, respectively.
As usually defined, the Kd is a measure of binding affinity in units of concentration. A high value points to a looser complex. In turn, `Cn1nc(N2CC=CC(=O)NC2=O)c2ccc(C3CCN(C(=O)OC(C)(C)C)CC3)cc21` [US20250388593, Example 282] gave a Kd above 100 µM.
Then `CC(C)(C)OC(=O)CN1CCC2(CCCC(=O)NC2=O)CC1=O` (stereo unspecified) [US20250388593, Example 107], with above 100 µM.
Then `CC(C)(C)OC(=O)C1=CC(C2CCCC(=O)NC2=O)CC=C1` (stereo unspecified) [US20250388593, Example 60], with “in the range around 75 µM”; and `CC(C)(C)OC(=O)N1CCN(C(=O)CN2CCC3(CCCC(=O)NC3=O)CC2=O)CC1` (stereo unspecified) [US20250388593, Example 98], with above 100 µM; and `CC(C)(C)OC(=O)CCCCCNc1ccc(N2CCC(N3CCCC(=O)NC3=O)C2=O)cc1` (stereo unspecified) [US20250388593, Example 302], with above 100 µM.
Then `O=C1CCCC(C2=CC([N+](=O)[O-])CC=C2)C(=O)N1` (stereo unspecified) [US20250388593, Example 62], with above 100 µM; and `Cn1c(=O)n(C2CCCC(=O)NC2=O)c2ccc(CCCCC(=O)OC(C)(C)C)cc21` (stereo unspecified) [US20250388593, Example 217], with below 50 µM.
Regarding `O=C1CCCC(N2C(=O)OCC3=C2C=CC([N+](=O)[O-])C3)C(=O)N1` (stereo unspecified) [US20250388593, Example 274], the Kd was above 100 µM.
For the molecule `CC(C)(C)OC(=O)NCCCCCCCNc1ccc(N2CCC3(CCCC(=O)NC3=O)CC2=O)cc1` (stereo unspecified) [US20250388593, Example 304], the Kd is above 100 µM.
`O=C1CCCC(c2cc([N+](=O)[O-])ccc2Cl)C(=O)N1` (stereo unspecified) [US20250388593, Example 63]: the Kd is above 100 µM.
The figure for `CC(=O)Nc1ccc2nc(N3CCCC(=O)NC3=O)sc2c1` [US20250388593, Example 119] is below 50 µM.
As to `CC(C)(C)OC(=O)CCCCCNc1cccc(C2CCCC(=O)NC2=O)c1` (stereo unspecified) [US20250388593, Example 298], the Kd was above 100 µM.
Molecule `CN(C1CCCC(=O)NC1=O)S(=O)(=O)c1ccc(CCCCC(=O)OC(C)(C)C)cc1` (stereo unspecified) [US20250388593, Example 279] came in with a Kd above 100 µM.
The figure for `Cn1c(=O)n(C2CCCC(=O)NC2=O)c2cccc(CCCCCCCC(=O)OC(C)(C)C)c21` (stereo unspecified) [US20250388593, Example 207] is above 100 µM; for `COC(=O)C(CCCCNC(=O)OCc1ccccc1)Oc1ccccc1[N+](=O)[O-]` (stereo unspecified) [US20250388593, Example 66-1] it is above 100 µM.
Then `CC(C)(C)OC(=O)CCc1nn(C2CCCC(=O)NC2=O)c2ccccc12` (stereo unspecified) [US20250388593, Example 137], with below 50 µM.
Then `Cn1c(=O)n(C2CCCC(=O)NC2=O)c2ccc(CCCCCCCC(=O)OC(C)(C)C)cc21` (stereo unspecified) [US20250388593, Example 216], with above 100 µM; and `Cn1c(=O)n(C2CCCC(=O)NC2=O)c2ccc(C#CCCCCCC(=O)OC(C)(C)C)cc21` (stereo unspecified) [US20250388593, Example 215], with above 100 µM.
Consider `CC(C)(C)OC(=O)CCCCCNc1ccc(N2CCC3(CCCC(=O)NC3=O)CC2=O)cc1` (stereo unspecified) [US20250388593, Example 301], for which the Kd was above 100 µM.
The figure for `Cn1c(=O)n(C2CCCC(=O)NC2=O)c2cccc(CCC(=O)OC(C)(C)C)c21` (stereo unspecified) [US20250388593, Example 213] is below 50 µM.
The figure for `CC(C)(C)OC(=O)N1CCC(c2ccc(OC3CCCCNC3=O)cc2)CC1` (stereo unspecified) [US20250388593, Example 276] is above 100 µM.
